# From the supplement of paper PMC11061612
# Columns and labels:
# Assay in all cases: Bliss excess, mean over the matrix (fraction); higher = more synergy
# [1] = test system: CCRF-CEM (T-Lymphoblastic Leukemia)
# Method in brief: (§1)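 Bliss excess equals the observed combination effect minus the expected value EA + EB − EA·EB, where EA and EB are the effects of each agent alone. Combination Emax is the second-highest inhibition within the matrix. Inhibition was scaled from CellTiter-Glo 2.0 luminescence, with 0 set by vehicle wells and 1 by blank wells, after 72 hours of two-drug dosing of cells plated in 1536-well plates.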
# [2] = test system: RO82-W-1 (Thyroid Gland Carcinoma)
# Method in brief: as §1
# [3] = test system: Ramos-2G6-4C10 (Burkitt's Lymphoma)
# Method in brief: as §1
# [4] = test system: HuP-T4 (Pancreatic Carcinoma)
# Method in brief: as §1
# T98G (Glioblastoma) = test system: T98G (Glioblastoma)
# Method in brief: as §1
# [5] = test system: KP-1N (Pancreatic Carcinoma)
# Method in brief: as §1
# [6] = test system: TCCSUP (Bladder Carcinoma)
# Method in brief: as §1
# [7] = test system: UM-UC-3 (Bladder Carcinoma)
# Method in brief: as §1
# [8] = test system: HT-1376 (Bladder Carcinoma)
# Method in brief: as §1
# [9] = test system: CaR-1 (Colorectal Carcinoma)
# Method in brief: as §1
# [10] = test system: NCI-H2085 (Non-Small Cell Lung Carcinoma)
# Method in brief: as §1
# HOS (Osteosarcoma) = test system: HOS (Osteosarcoma)
# Method in brief: as §1
# [11] = test system: HCC1806 (Breast Carcinoma)
# Method in brief: as §1
# [12] = test system: COLO-205 (Colorectal Carcinoma)
# Method in brief: as §1
# [13] = test system: ME-1 (Acute Myeloid Leukemia)
# Method in brief: as §1
# [14] = test system: CAL-148 (Breast Carcinoma)
# Method in brief: as §1
# [15] = test system: LU-135 (Small Cell Lung Carcinoma)
# Method in brief: as §1
# [16] = test system: Hs-578-T (Breast Carcinoma)
# Method in brief: as §1
# [17] = test system: Daoy (Other Solid Carcinomas)
# Method in brief: as §1
# [18] = test system: DEL (T-Cell Non-Hodgkin's Lymphoma)
# Method in brief: as §1
SMILES,Bliss excess [1],Bliss excess [2],Bliss excess [3],Bliss excess [4],Bliss excess (T98G (Glioblastoma)),Bliss excess [5],Bliss excess [6],Bliss excess [7],Bliss excess [8],Bliss excess [9],Bliss excess [10],Bliss excess (HOS (Osteosarcoma)),Bliss excess [11],Bliss excess [12],Bliss excess [13],Bliss excess [14],Bliss excess [15],Bliss excess [16],Bliss excess [17],Bliss excess [18]
"COc1cccc(OCCCN)c1-c1cc(Nc2cnc(C#N)cn2)n[nH]1 [Prexasertib] + CCc1c2c(nc3ccc(O)cc13)-c1cc3c(c(=O)n1C2)COC(=O)[C@]3(O)CC [SN-38] (first compound max 1 µM, 7x7, partner max 0.3 µM)",-0.0078,0.0431,0.0754,-0.0424,0.0121,0,0.0743,0.0017,-0.0265,-0.053,-0.0245,0.0409,-0.001,0.153,0.0086,-0.0388,-0.0623,0.0856,0.0128,-0.0068
"CC1(C)CCC(CN2CCN(c3ccc(C(=O)NS(=O)(=O)c4ccc(NCC5CCOCC5)c([N+](=O)[O-])c4)c(Oc4cnc5[nH]ccc5c4)c3)CC2)=C(c2ccc(Cl)cc2)C1 [Venetoclax] + CN(C)CCCOc1ccc(-c2ccc3ncc4c(c3c2)n(C2CCOCC2)c(=O)n4C)cn1 [AZD0156] (first compound max 1 µM, 7x7, partner max 1 µM)",0.0436,-0.0586,0.0676,-0.0099,-0.0509,-0.0431,-0.036,0.0045,-0.0151,-0.0201,-0.0295,-0.033,0.0097,-0.0153,-0.0045,-0.0006,-0.0012,-0.0426,-0.0076,0.0011
"COc1nnc2ccc(N3CCC(c4ccc(OCCN5CCN(C)C(=O)[C@H]5C)cc4)CC3)nn12 [AZD5153] + C=CCn1c(=O)c2cnc(Nc3ccc(N4CCN(C)CC4)cc3)nc2n1-c1cccc(C(C)(C)O)n1 [AZD1775] (first compound max 1 µM, partner max 1 µM)",-0.019,0.038,-0.0657,-0.0435,-0.0092,0.0464,-0.0497,-0.0413,0.0053,-0.0267,-0.0223,-0.0504,-0.0704,-0.0529,-0.0446,-0.0117,-0.004,-0.0661,-0.0196,-0.0679
"CC1(C)CCC(CN2CCN(c3ccc(C(=O)NS(=O)(=O)c4ccc(NCC5CCOCC5)c([N+](=O)[O-])c4)c(Oc4cnc5[nH]ccc5c4)c3)CC2)=C(c2ccc(Cl)cc2)C1 [Venetoclax] + COc1cc(Nc2ncc3c(n2)-c2ccc(Cl)cc2C(c2c(F)cccc2OC)=NC3)ccc1C(=O)O [Alisertib] (first compound max 1 µM, 7x7, partner max 10 µM)",-0.0493,-0.0658,0.0209,0.0336,-0.0205,0.0194,-0.0341,0.0184,-0.0812,0.008,0.0491,-0.0132,0.0042,-0.0172,0.0669,-0.0175,-0.0236,0.107,0.105,0.0094
"CCN(CCO)CCCOc1ccc2c(Nc3cc(CC(=O)Nc4cccc(F)c4)[nH]n3)ncnc2c1 [AZD2811] + O=C(c1cc(Cc2n[nH]c(=O)c3ccccc23)ccc1F)N1CCN(C(=O)C2CC2)CC1 [Olaparib] (first compound max 1 µM, 7x7, partner max 10 µM)",-0.0134,-0.0564,0.0573,-0.0055,0.0112,-0.0175,0.0238,0.0332,-0.0499,0.0213,-0.0109,-0.0188,0.0298,0.0075,0.0119,0.0319,-0.0632,-0.0192,0.0678,0.0328
"CC1(C)CCC(CN2CCN(c3ccc(C(=O)NS(=O)(=O)c4ccc(NCC5CCOCC5)c([N+](=O)[O-])c4)c(Oc4cnc5[nH]ccc5c4)c3)CC2)=C(c2ccc(Cl)cc2)C1 [Venetoclax] + CCN(CCO)CCCOc1ccc2c(Nc3cc(CC(=O)Nc4cccc(F)c4)[nH]n3)ncnc2c1 [AZD2811] (first compound max 1 µM, 7x7, partner max 1 µM)",-0.0322,-0.0604,0.0321,-0.0061,-0.0169,-0.0182,-0.0259,-0.0234,-0.0605,-0.055,-0.0189,-0.0102,0.0137,-0.0461,-0.0118,-0.0461,-0.0099,-0.0451,-0.0311,-0.0345
"C[C@@H](c1ccc2nccn2c1)n1nnc2ncc(-c3cnn(C)c3)nc21 [Savolitinib] + Cc1c2c(nn1C)CSCc1cc(n(C)n1)CSc1cc(c3ccccc3c1)OCCCc1c(C(=O)O)n(C)c3c-2c(Cl)ccc13 [AZD5991] (first compound max 1 µM, 7x7, partner max 1 µM)",0.0088,-0.0386,0.0002,-0.0618,-0.021,-0.0637,-0.0262,-0.0161,-0.0206,-0.0725,-0.0401,-0.0188,0.0014,-0.0386,-0.051,0.0087,-0.0056,-0.0137,-0.0141,-0.0441
"Cc1cc2ncnn2cc1Nc1ncc2c(n1)n(C1CCOCC1)c(=O)n2C [AZD7648] + C=CCn1c(=O)c2cnc(Nc3ccc(N4CCN(C)CC4)cc3)nc2n1-c1cccc(C(C)(C)O)n1 [AZD1775] (first compound max 10 µM, partner max 1 µM)",0.0337,0.131,0.0005,0.0417,0.0062,-0.0681,-0.0109,0.0279,0.0121,0.0022,0.0418,-0.0109,0.0373,-0.026,0.0321,0.0051,-0.0169,-0.121,0.0018,0.023
"CCc1c2c(nc3ccc(O)cc13)-c1cc3c(c(=O)n1C2)COC(=O)[C@]3(O)CC [SN-38] + O=C(c1cc(Cc2n[nH]c(=O)c3ccccc23)ccc1F)N1CCN(C(=O)C2CC2)CC1 [Olaparib] (first compound max 0.3 µM, 7x7, partner max 10 µM)",0.0463,-0.0448,0.0338,0.0913,0.107,0.0647,0.0883,0.0493,-0.0464,0.0221,-0.0181,0.0819,0.0498,0.0491,0.0041,0.0981,0.0545,0.0807,0.119,0.0923
